According to PMC11489133, “Obicetrapib exhibits favorable physiochemical and pharmacokinetic properties compared to previous cholesteryl ester transfer protein inhibitors: An integrated summary of results from non‐human primate studies and clinical trials” (Pharmacology Research & Perspectives, 2024):
Read-outs that look alike come from different tables or passages of the source.

Legend:
[1] = TA‐8995‐203 Phase II trial in Japanese participants, plasma concentrations of obicetrapib; format: in vivo, humans; conditions: for Mean (SD) Plasma Level / concentration at 8 weeks: Week 8 (EOT), Japanese participants; for % Change in Plasma Level: Week 8 to Week 12, mean (SD); for concentration at 8 weeks / concentration at 12 weeks: both sexes, human, plasma, oral, read-out: Mean (SD) Plasma Level; for concentration at 12 weeks: Week 12, four weeks after the end of treatment
Procedure: (§1) The PK parameters and the effect of food on the bioavailability of obicetrapib in humans have been examined in both Phase I[9] (TA‐8995‐09 CSR, NewAmsterdam Pharma) and Phase II trials.[10], [11], [12], [13] The trials were performed in accordance with the Declaration of Helsinki, Good Clinical Practice Guidelines, and applicable regulatory requirements. Approval was obtained from the relevant ethical review boards for each site. All volunteers provided written informed consent prior to participation. PK parameters were determined using WinNonlin software, version 4.1 or higher (Pharsight/Certara Corporation, USA). Concentrations of obicetrapib were summarized for each treatment group using descriptive statistics.
This Phase II trial (NCT05421078) was designed to evaluate the efficacy, safety, and tolerability of obicetrapib as an adjunct to stable statin therapy in Japanese participants with LDL‐C >70 mg/dL, or non‐HDL‐C >100 mg/dL, and triglyceride levels <400 mg/dL.[13] Eligible participants were receiving either atorvastatin 10 or 20 mg or rosuvastatin 5 or 10 mg for at least 8 weeks prior to screening and continued statin therapy throughout the treatment period. One hundred two participants (mean age: 64.8 years; 71.6% male; mean BMI: 25.6 kg/m^2) were enrolled at nine clinical research sites in Japan and randomized to one of four treatment groups in a 1:1:1:1 ratio: 1) placebo; 2) 2.5 mg obicetrapib; 3) 5 mg obicetrapib; or 4) 10 mg obicetrapib.
The participants were instructed to take their assigned treatment orally once daily at approximately the same time each morning for the 8‐week treatment period. After randomization, participants returned to the clinical research site during Weeks 2, 4, and 8 (end of treatment) for PK assessments. Participants also completed a follow‐up visit 4 weeks after the end of treatment (Week 12) for a final PK assessment. All of the participants who were randomized completed the treatment and were included in the primary analysis. The PK population included all randomized participants in the mITT population assigned to the three obicetrapib dose groups who had sufficient blood samples collected for valid estimation of PK parameters; 76 (100%) participants in the PK population were included in the 4‐week post‐end of treatment PK analysis (TA‐8995‐203 CSR, NewAmsterdam Pharma).

[2] = ROSE Phase II trial, plasma concentrations of obicetrapib; format: in vivo, humans; conditions: for % Change in Plasma Level: Week 8 to Week 23, mean (SD); for concentration at 8 weeks / concentration at 23 weeks: both sexes, human, plasma, oral, read-out: Mean (SD) Plasma Level; for concentration at 8 weeks: Week 8 (EOT); for concentration at 23 weeks: Week 23, fifteen weeks after the end of treatment
Procedure: as §1
ROSE (NCT04753606) was a placebo‐controlled, double‐blind, randomized trial conducted to evaluate the efficacy of obicetrapib as an adjunct to high‐intensity statin therapy for reducing LDL‐C and ApoB levels.[11] A secondary endpoint of the trial included assessing plasma concentrations of obicetrapib during and after the end of treatment. […] One hundred twenty participants (mean age: 61.8 years; 55.8% male; 76.7% White; mean BMI: 31.1 kg/m^2) were enrolled at 17 clinical research sites in the United States and randomized in a 1:1:1 ratio to one of three treatment groups: (1) placebo; (2) 5 mg obicetrapib; or (3) 10 mg obicetrapib. The participants were instructed to take their assigned treatment orally with food once daily at approximately the same time each morning for the 8‐week treatment period. After randomization, participants returned to the clinical research site during Weeks 4 and 8 (end of treatment) for PK assessments. Additionally, participants completed follow‐up visits at four, eight, and 15 weeks after the end of treatment (Weeks 12, 16, and 23) for PK assessments. Of the 120 participants randomized in ROSE, 119 (99.2%) completed treatment; all 120 participants randomized were included in the modified Intent‐to‐Treat (mITT) analysis. The PK population (n = 80) included all randomized participants in the mITT population assigned to the two obicetrapib dose groups who had sufficient blood samples collected for valid estimation of PK parameters. Seventy‐seven (96.3%), 79 (98.8%), and 79 (98.8%) participants in the PK population for ROSE were included in the 4‐, 8‐, and 15‐week post‐end of treatment PK analyses, respectively (TA‐8995‐201 CSR, NewAmsterdam Pharma).

[3] = absorption, metabolism and excretion study of a single 10 mg dose of 14C-obicetrapib (NCT02408055, TA‐8995‐07); format: in vivo, humans
Procedure: Figure 2 illustrates the obicetrapib (TA‐8995) M1 detected above the LLOQ (>1% radioactivity) in human plasma expressed as the percent radioactivity profiled. A study (NCT02408055) was conducted in healthy male participants (n = 6) to assess the absorption, metabolism, and excretion of a single dose of 10 mg of ^14C‐obicetrapib (TA‐8995‐07 CSR, NewAmsterdam Pharma). One of the objectives of the study was to determine the chemical structure of ^14C‐obicetrapib M1 that represent ≥10% of total radioactivity in plasma. The participants received 10 mL ^14C‐obicetrapib oral suspension, containing 10 mg and 100 μCi of ^14C‐obicetrapib in the fasted state. Clinical samples for analysis were selected based upon the levels of radioactivity present as determined by liquid scintillation counting and were stored at below −50°C (nominally −80°C) when not in use. Plasma samples from the participants were sequentially extracted with acetonitrile at five time points. The resulting extracts were concentrated by evaporation and reconstituted in mobile phase HPLC prior to analysis by radio‐HPLC. All samples were analyzed by liquid scintillation counting to evaluate the recovery of radioactivity. The profiles of the radiolabeled components in each sample of plasma were determined by HPLC analysis with off‐line radio‐detection. Selected samples from each matrix were then further analyzed by high‐resolution mass spectrometry to investigate the identity of M1. In plasma, the predominant metabolite component was unchanged obicetrapib (~79% of total drug‐related exposure), and the most abundant plasma M1 were M1 and P9 of which each accounted for ~4% of total exposure (Figure 2). No significant differences in the metabolite profiles were observed across the samples obtained from the six participants (TA‐8995‐07 CSR, NewAmsterdam Pharma).

[4] = cited from earlier work
[5] = Obicetrapib 2.5 mg + stable statin therapy
[6] = Obicetrapib 5 mg + stable statin therapy
[7] = Obicetrapib 10 mg + stable statin therapy
[8] = Obicetrapib 5 mg + high‐intensity statin
[9] = Obicetrapib 10 mg + high‐intensity statin

Structure (SMILES): CCOC(=O)N1c2ccc(C(F)(F)F)cc2C(N(Cc2cc(C(F)(F)F)cc(C(F)(F)F)c2)c2ncc(OCCCC(=O)O)cn2)CC1CC (stereo not drawn) [Obicetrapib]
- Mean (SD) Plasma Level [1, 5]: 194.5 (42.7) ng/mL
- % Change in Plasma Level [1, 5]: −93.4 (2.6) %
- % Change in Plasma Level ([1]; Obicetrapib 2.5 mg + stable statin therapy, listed as obicetrapib): −93.4%
- % Change in Plasma Level [1, 6]: −93.5 (3.4) %
- % Change in Plasma Level ([1]; Obicetrapib 5 mg + stable statin therapy, listed as obicetrapib): −93.5%
- Mean (SD) Plasma Level [1, 7]: 506.3 (237.5) ng/mL
- % Change in Plasma Level [1, 7]: −95.2 (2.3) %
- % Change in Plasma Level ([1]; Obicetrapib 10 mg + stable statin therapy, listed as obicetrapib): −95.2%
- concentration at 8 weeks ([1]; 2.5 mg, Obicetrapib 2.5 mg + stable statin therapy): 194 ng/mL
- concentration at 8 weeks ([1]; 10 mg, Obicetrapib 10 mg + stable statin therapy): 506 ng/mL
- concentration at 12 weeks [1, 5]: 13.2 ng/mL
- concentration at 8 weeks [1, 6]: 362 ng/mL
- concentration at 12 weeks [1, 6]: 24.6 ng/mL
- concentration at 12 weeks [1, 7]: 27.6 ng/mL
- % Change in Plasma Level [2, 8]: −98.5 (1.7) %
- % Change in Plasma Level ([2]; Obicetrapib 5 mg + high‐intensity statin, listed as obicetrapib): −98.5%
- % Change in Plasma Level [2, 9]: −98.4 (1.9) %
- concentration at 8 weeks [2, 8]: 254 ng/mL
- concentration at 23 weeks [2, 8]: 2.9 ng/mL
- concentration at 8 weeks [2, 9]: 395 ng/mL
- concentration at 23 weeks [2, 9]: 5.6 ng/mL
- percent radioactivity profiled in human plasma ([3]; n = 6 individuals, 24 h AUC pools, Figure 2): up to 92.8%
- share of total drug‐related exposure in plasma ([3]; single 10 mg 14C‐obicetrapib, fasted, healthy males n = 6): ~ 79%
- PSA [4]: 105 Å^2
